In general, Km refers to the concentration of substrate that gives half-maximal velocity.

These results are taken from patent publication US20090264421A1 (priority 2007, published 2009).

Like-named read-outs stand apart in the source and are kept apart here.

Data set [1] deals with A549 cells. The note with it: for effect of NAC on reductions in colony formation caused by HDAC inhibitors: data not shown. As for the experimental part:
FIG. 5. […] B. Assessment of intracellular (A549 cells) and extracellular (media) chaetocin concentrations as functions of time in response to addition of 10 μM chaetocin to tissue culture media at time 0. C. […] For B and C, chaetocin concentrations were determined as described in the text using HPLC. […] Cells were exposed to all agents for 24 hours, with colonies assessed 6-7 days subsequently as described below.
FIG. 6. […] C. and D. The effects of glutathione pretreatment on intracellular (C) and extracellular (media, D) chaetocin concentration in response to treatment of A549 cells with 10 μM chaetocin for 5 min. Intracellular and extracellular chaetocin concentrations were assessed using HPLC as described in the text, with 100 μM glutathione added 5 minutes before chaetocin addition. E. “Double reciprocal” plot indicating the effects of 5 minute pretreatment with 100 […] glutathione or diluent on intracellular chaetocin concentrations resulting from exposure of A549 cells to varying concentration of chaetocin for 5 minutes. Intracellular chaetocin concentrations were assessed using HPLC as described in the text. Results shown are representative of three independent experiments.
Colony formatting assays: Briefly, 650 suspended A549 cells obtained from trypsinization of stock flasks of subconfluent cell cultures were deposited into each of triplicate sets of 35 mm tissue culture plates and allowed to adhere for 16 hours. Cells were then treated for the indicated durations (24 hours unless otherwise indicated) with diluent and/or drugs as indicated in the text and Figures. After drug removal and washing, cells were allowed to proliferate in drug-free medium for 7 to 10 days, and thereafter washed twice with serum-free phosphate buffered saline (PBS), stained with Coomassie blue, and then manually counted.

For the next data set, the target named is T1, TrxR1 (Rattus norvegicus, UniProt O89049).
T1 sequence (O89049 1-499): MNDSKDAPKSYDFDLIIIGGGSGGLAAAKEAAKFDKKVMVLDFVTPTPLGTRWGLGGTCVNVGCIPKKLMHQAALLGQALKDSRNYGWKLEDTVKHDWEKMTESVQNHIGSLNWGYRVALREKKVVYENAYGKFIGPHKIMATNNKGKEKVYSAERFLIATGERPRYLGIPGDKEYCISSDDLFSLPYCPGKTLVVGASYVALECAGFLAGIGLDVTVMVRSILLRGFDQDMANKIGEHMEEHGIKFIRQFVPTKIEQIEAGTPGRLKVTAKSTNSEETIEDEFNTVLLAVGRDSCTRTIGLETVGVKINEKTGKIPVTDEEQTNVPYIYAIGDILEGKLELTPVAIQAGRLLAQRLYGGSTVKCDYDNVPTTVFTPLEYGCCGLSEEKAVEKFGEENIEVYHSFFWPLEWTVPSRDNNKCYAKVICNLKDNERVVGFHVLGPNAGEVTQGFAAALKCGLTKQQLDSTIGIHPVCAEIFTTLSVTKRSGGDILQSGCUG
The source says:
Reagents: Chaetocin, β-Nicotinamide adenine dinucleotide 2′-phosphate reduced tetrasodium salt hydrate (NADPH), rat liver thioredoxin reductase, 5,5′-dithiobis(2-nitrobenzoic acid) (DTNB), oxidized glutathione (GSSG), bovine insulin, gliotoxin, thioredoxin reductase assay kit, anti-actin antibody and Celytic lysis reagent were purchased from Sigma (St. Louis, Mo.); yeast glutathione reductase and Complete Protease Inhibitor Tablets from Roche (Indianapolis, Ind.); BCA protein from Pierce (Rockford, Ill.); oxidized E. coli thioredoxin and dithiothreitol (DTT) from Promega (Madison, Wis.); verruculogen from Calbiochem (San Diego, Calif.); 4-acetamido-4′-maleimidylstilbene-2,2′-disulfonic acid (AMS) and Lipofectamine-Plus from Invitrogen (Carlsbad, Calif.); chaetomin from Alexis Biochemicals (San Diego, Calif.); and anti-thioredoxin antibody from Cell Signaling (Beverly, Mass.). HeLa cells were obtained from ATCC.
Steady-state kinetics: The 100 μL reaction consisted of 100 mM potassium phosphate (pH 7.0), 10 mM EDTA, 0.0004 U/μL thioredoxin reductase and chaetocin or other compounds as indicated. The assay was carried out in a 96-well quartz plate and the oxidation of NADPH was measured as a change in absorption at 340 nm. The initial velocities of the reaction were calculated from the decrease in the absorbance between 0 and 5 min (slope), and on a pathlength of 0.3 cm and NADPH ε=6.22 mmol^−1*cm^−1*L. The velocity versus concentration data were then analyzed using SigmaPlot's Enzyme Kinetics 1.3 program (Systat Software, San Jose, Calif.).

A further data set deals with T2, thioredoxin reductase (Rattus norvegicus, UniProt O89049).
T2 construct: rat liver thioredoxin reductase; purchased Sigma (St. Louis, Mo.); host or cells: rat liver
T2 sequence (O89049 1-499): T1 sequence (O89049 1-499)
Nature of the data set: Thioredoxin reductase activity assay (gel-based oxidation state of thioredoxin method). The data set is classed as biochemical. The note with it: gel-based, AMS modification. Here is the method: HeLa cells were obtained from ATCC.
Thioredoxin Reductase Activity Assay (gel-based oxidation state of thioredoxin method): Reduction of thioredoxin by thioredoxin reductase was measured by the decrease in electrophoretic mobility caused by covalent modification of thioredoxin (by AMS) when the disulfide is reduced. […] At the indicated time, a 5 μL sample was removed and immediately added to 5 μL of 30 mM AMS in TE buffer (pH 7.5). The AMS was allowed to react (15 minutes at 22° C.) with reduced thioredoxin sulfhydryl groups, then the samples were mixed with non-reducing sample buffer and were electrophoresed on 18% Tris-HCl SDS-PAGE gels. The gels were stained with Coomassie blue and bands were imaged and quantitated using a Syngene InGenius gel documentation system (Frederick, Md.).

Data set [2] relates to A549 cells. Format: cell-based, human. Here is the method: FIG. 7. […] A549 cells were exposed to the indicated concentration of chaetocin for 24 hours, with addition of glutathione or diluent 30 minutes prior to chaetocin addition. Glutathione levels were assessed by spectrophotometric assay as described below. […] Cells were treated with 10 μM chaetocin for 20 minutes prior to assay, and calculated intracellular chaetocin levels were measured by HPLC with adjusted for differences in average cell volume (calculated from measured cell radii ascertained via light microscopy). Shaded area represents 1 standard deviation confidence interval, with central bar reflecting the mean relative intracellular chaetocin level. […] Cells from 4 myeloma patients were exposed to 200 μM hydrogen peroxide for 24 hours prior to assay, with trypan blue exclusion used to assess surviving cells.
Assessment of cellular oxidative stress: Cellular oxidative stress was assessed utilizing 5,6-chloromethyl-2′,7′-dichlorodihydrofluorescein diacetate or hydroethidium (Molecular Probes/Invitrogen, Carlsbad, Calif.) as cell permeable fluorescent probes and FACS analyses.

For data set [3], the system named is freshly collected sorted patient CD138+ myeloma cells. The note with it: 24 hours. Here is the method: FIG. 3. […] Survival indicated in A-E was assessed using a trypan blue exclusion assay, counting viable cells using a hemocytometer after 24 hour exposure to the indicated drugs and drug concentrations.
Patient bone marrow leukocytes were divided into myeloma (CD138+) and non-myeloma/normal leukocyte (CD138−) fractions employing sorting using magnetic bead technology in kit form (MACS CD138 microbeads, Miltenyi Biotech, Auburn, Calif.). Sorted cells were plated in a 96-well tissue culture plate at a concentration of 5×10^5 cells and dosed with indicated drug concentrations for 24 hours. Survival was assessed using a trypan blue exclusion assay.

The next data set has as its system HeLa cells. Nature of the data set: Transient thioredoxin overexpression in HeLa cells, trypan blue viability. Format: cell-based, human. The note with it: 100 nM, 24 hours. Here is the method: A. Transient overexpression of thioredoxin attenuates chaetocin—but not doxorubicin-induced cytotoxicity in HeLa cells. Transfected cells were treated for 24 hours, cell viability assessed using a trypan blue […] assay. Inset: immunoblotting showing increased level of thioredoxin in transiently transfected HeLa cells compared to empty-vector transfected cells. B. Model indicating how chaetocin competes with thioredoxin as a substrate for thioredoxin reductase, thereby serving to attenuate reduction of the thioredoxin reductase downstream substrate and effector thioredoxin. Figure numbers corresponding to experimental data supporting indicated effects are shown.
Cell culture, transient transfections, and immunoblotting: HeLa cells were cultured in RPMI 1640 containing 5% FBS and 2 mM L-glutamine. Cells were passaged twice weekly and maintained in 37° C. in an atmosphere containing 95% air-5% CO2 (vol/vol). For transfections, 10^5 cells per well were plated in 12-well plates and were transfected with 1 μg pcDNA or pcDNA-Trx using standard Lipofectamine-Plus procedures. Transfection efficiency based on cells transfected with GFP was 80%. […] The cells were then trypsinized and manually counted in trypan blue to exclude dead cells. […] Protein was analyzed by BCA assay and lysates were electrophoresed on 15% SDS-PAGE gels and transferred to nitrocellulose. […]

Data set [4] relates to A549 cells. Format: cell-based, human. The note with it: glutathione added 5 minutes before 10 μM chaetocin. The source says: Measurement of intra- and extracellular chaetocin levels: Tumor cells treated with indicated chaetocin concentrations were washed twice with ice cold PBS, immediately solubilized in 0.5 M perchloric acid, and evaluated “real time” via HPLC using Beckman System Gold Nouveau Software with a dual pump 125 gradient pump system, 507e autosampler, 168 diode array detector, and Beckman Ultrasphere ODS column (4.6 mm×[…]×7 μm) using the following elution profile: 100% water to 100% methanol linear gradient over 40 minutes, followed by a 10 minute period of elution with 100% methanol. Quantitation was accomplished using a standard curve of peak areas derived from analogous HPLC data using varying concentrations of chaetocin.

[5] abbreviates: substrate of TrxR1, NADPH oxidation.

As for `CC(/C=C/C(=O)NO)=C\[C@@H](C)C(=O)c1ccc(N(C)C)cc1` [tricostatin A, trichostatin A], the “effect of NAC on reductions in colony formation caused by HDAC inhibitors” value (from here on “effect of NAC on reductions … by HDAC inhibitors”) in the data set on A549 cells [1] (A549 cells) is “unaffected by NAC”. On to “Trx: TrxR1 native substrate thioredoxin (oxidized E. coli thioredoxin from Promega)”, for which the Km with TrxR1 (setting [5]) came to 105 ± 26 µM. As to `COc1ccc2c3c4n(c2c1)[C@H](C=C(C)C)OOC(C)(C)C[C@@H]4N1C(=O)[C@@H]2CCCN2C(=O)[C@]1(O)[C@H]3O` [verruculogen, reference compound], the “inhibition of reduction of thioredoxin by thioredoxin reductase” value (shortened to “inhibition of reduction of thioredoxin”) against thioredoxin reductase is listed as “inability”. On to `CC(=O)N[C@@H](CS)C(=O)O` [NAC, N-acetyl cysteine], for which the “effect of co-treatment on chaetocin-induced reductions in colony formation” value with A549 cells [1] (A549 cells, co-treatment with chaetocin) is “attenuated chaetocin-induced cytotoxicity”. Further, the “effect of pretreatment on chaetocin-induced oxidative stress” value with A549 cells [2] (10 mM NAC) is listed as “attenuated chaetocin-induced oxidative stress”. Turning to `COc1cccc2c1C(=O)c1c(O)c3c(c(O)c1C2=O)C[C@@](O)(C(=O)CO)C[C@@H]3O[C@H]1C[C@H](N)[C@H](O)[C@H](C)O1` [doxorubicin], the “activity against sorted patient CD138+ myeloma cells” value in data set [3] (ex vivo, trypan blue exclusion) is reported as “largely resistant”. Further, the “effect of transient Trx overexpression on drug-induced cell death” value in the data set on HeLa cells is given as “did not appreciably rescue cells from doxorubicin-induced cell death”.

Turning to `CS[C@@]1(CO)C(=O)N2[C@H]3Nc4ccccc4[C@@]3([C@]34C[C@]5(SC)C(=O)N(C)[C@@](CO)(SC)C(=O)N5[C@H]3Nc3ccccc34)C[C@]2(SC)C(=O)N1C` [S-methyl chaetocin], the “cytotoxicity (colony formation)” value with A549 cells [1] (24 hour exposure, modified chaetocin disulfide bond) was “complete abrogation of its cytotoxicity”. Also, the “inhibition of reduction of thioredoxin” value against thioredoxin reductase is on record as “inability”. On to `CN1C(=O)[C@]2(Cc3cn([C@]45C[C@@]67SS[C@@](CO)(C(=O)N6[C@H]4Nc4ccccc45)N(C)C7=O)c4ccccc34)SS[C@@]1(CO)C(=O)N2C` [chetomin, chaetomin], for which the “inhibition of reduction of thioredoxin” value against thioredoxin reductase is reported as “also inhibited the activity of thioredoxin reductase, albeit somewhat less effectively than chaetocin”. At TrxR1 (setting [5]), the Km amounted to 16.1 ± 5.4 µM. Take `CCCC(CCC)C(=O)O` [valproic acid]: the “effect of NAC on reductions … by HDAC inhibitors” value in the data set on A549 cells [1] (A549 cells) was “unaffected by NAC”.

As to `OO` [H2O2, hydrogen peroxide], the “sensitivity of patient myeloma cells versus matched normal leukocytes” value in data set [3] (200 μM hydrogen peroxide, 4 patients) is given as “more sensitive to peroxide-induced cytotoxicity”. Also, the cellular oxidative stress entry with A549 cells [2] (24 hours, FACS probe) is recorded as “increased intracellular oxidative species”. Take `N[C@@H](CCC(=O)N[C@@H](CS)C(=O)NCC(=O)O)C(=O)O` [glutathione, reference compound]: in the data set with A549 cells [4], the “effect of pretreatment on cellular accumulation of chaetocin” value is “attenuated the cellular accumulation of chaetocin”. Further, the “effect of co-treatment on chaetocin-induced reductions in colony formation” value with A549 cells [1] is “attenuated chaetocin-induced cytotoxicity”. In the case of `O=C(/C=C/c1ccc(CN(CCO)CCc2c[nH]c3ccccc23)cc1)NO` [LAQ-824], the “effect of NAC on reductions … by HDAC inhibitors” value in the data set with A549 cells [1] (A549 cells) was “unaffected by NAC”.

With `CN1C(=O)[C@]23CC4=CC=C[C@H](O)[C@H]4N2C(=O)[C@@]1(CO)SS3` [gliotoxin], the “inhibition of reduction of thioredoxin” value at thioredoxin reductase is “also inhibited the activity of thioredoxin reductase, albeit somewhat less effectively than chaetocin”. For the same molecule, the Km on TrxR1 is 16 ± 5 µM.
